Counter-ions that a name gives are not always drawn.
Experiments:
[1] = tested on: Rat carrageenin pedal edema; assay: Rat carrageenin pedal edema inhibitory activity; format: in vivo, rat (Jcl: SD); conditions: 50 mg/kg, orally, 3 hours after carrageenin; for inhibition in vivo at 50 mg/kg: Rattus norvegicus, po, 3 h, read-out: Inhibitory percentage (carrageenin pedal edema)
Description: Rat Carrageenin Pedal Edema Inhibitory Activity A Jcl: SD male rat (6 weeks old, weight 160-220 g) was used. After the mesurement of the volume of the dexter hind limb foot pad, a test compound suspended in 5% gum arabic solution was administered orally. Immediately after the administration, water was further administered orally so that the total administration volume of liquid became 5 ml/rat. After one hour, 0.05 ml of 1% carrageenin suspension in physiological saline was injected subcutaneously in the foot pad to induce edema [Winter, […]. and Nuss, G. W.: Proc. Soc. exp. […] Three hours after injection of carrageenin, the volume of the dexter limb was measured, and the edema volume was calculated by the difference between the volume after injection and the volume prior to injection.

cyclooxygenase = biological target: T1, cyclooxygenase (Rattus norvegicus, UniProt Q63921); assay: Cyclooxygenase inhibitory activity (HHT formation from arachidonic acid in rat platelet-rich plasma); format: cell-based, rat (Jcl:wistar)
T1 construct: from tissue; host or cells: platelets in platelet-rich plasma from rat abdominal aorta blood (Jcl:wistar, male)
T1 sequence (Q63921 27-602): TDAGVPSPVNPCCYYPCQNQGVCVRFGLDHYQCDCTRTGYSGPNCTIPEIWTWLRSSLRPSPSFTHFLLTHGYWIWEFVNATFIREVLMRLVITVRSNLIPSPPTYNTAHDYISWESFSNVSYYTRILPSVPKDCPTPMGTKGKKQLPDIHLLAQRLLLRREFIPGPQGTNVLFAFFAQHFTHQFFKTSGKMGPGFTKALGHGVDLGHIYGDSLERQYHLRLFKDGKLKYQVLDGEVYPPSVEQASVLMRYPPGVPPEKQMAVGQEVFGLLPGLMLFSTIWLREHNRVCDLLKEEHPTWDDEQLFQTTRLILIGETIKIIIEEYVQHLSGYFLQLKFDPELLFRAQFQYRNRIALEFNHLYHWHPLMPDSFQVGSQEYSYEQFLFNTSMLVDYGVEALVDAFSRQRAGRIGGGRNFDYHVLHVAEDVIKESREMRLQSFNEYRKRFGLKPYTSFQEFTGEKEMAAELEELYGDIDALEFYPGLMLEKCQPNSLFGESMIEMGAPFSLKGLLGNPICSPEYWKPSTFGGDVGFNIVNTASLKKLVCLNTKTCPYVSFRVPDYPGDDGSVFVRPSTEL

[2] = tested on: Mouse phenylquinone writhing; assay: Mouse phenylquinone writhing inhibitory activity; format: in vivo, mouse (Slc: ICR); conditions: Mus musculus, po, 20 min, 50 mg/kg, orally; read-out: Inhibitory percentage (phenylquinone writhing)
Description: Mouse Phenylquinone Writhing Inhibitory Activity A Slc: ICR male mouse (4 weeks, weight 17 to 24 g) was used. A test compound suspended in 5% gum arabic solution was administered orally. After 30 minutes, 0.1 ml/10 g body weight of 0.02% phenylquinone solution in water (dissolved by the aid of 5% ethanol) was injected intraperitoneally, and writhing and stretching responses of individual animals were measured for 20 minutes [Siegmund, E., Cadmus, R. and Lu, G.; Proc. Soc. exp. Biol. Med. 95, (1957)].

[3] = tested on: ART (antigen-responding T-cell); assay: In vitro ART (antigen-responding T-cell) proliferation test; format: cell-based, Lewis rat; conditions: for inhibition at 1 µM / inhibition at 10 µM: Rattus norvegicus, T-cell, read-out: % Inhibition of ART growth; for % Inhibition of ART growth: hydrochloride
[4] = tested on: brewer's yeast induced pyrexia; assay: Antipyretic activity (brewer's yeast induced pyrexia); format: in vivo, rat (DS line); conditions: 50 mg/kg, orally; for Antipyretic activity, .increment. °C.: at peak time
Description: Antipyretic Activity Six male DS line rats, 7 weeks old, weighing 200 to 240 g (Nihon Clea) per one group were used. According to the method of Winder et al. (J. Pharmac. Exp. Ther. 138: 405 (1963)), a suspension of 15% brewer's yeast (Sigma) in physiological saline (1 ml/100 g, b.w.) was injected subcutaneously at 16 hours before measurement of the body temperature to induce pyrexia. After injection of yeast, only water was provided, and each rat was bred separately in a five duplicate cage. At 16, 17 and 18 hours after yeast injection, the rectal temperature was measured by a thermistor thermometer (Takara Kogyo K.K.), and this was taken as the basal body temperature. […] Animals having the body temperature of not lower than 38.5° C. at 18 hours after yeast injection were selected, and a test compound was administered orally (1 ml/100 g, b.w.). As a control, only the solvent was provided. Upon administration, the body temperature of the control group and that of the test compound-administered group were adjusted to the same temperature. The rectal temperature was measured every hour till five hours after administration.

IC50 (cyclooxygenase) [µM] | Compound | inhibition in vivo at 50 mg/kg [1] [%] | further results
5.6 | O=C(/C=C/c1ccccc1)NCCCSc1ccncc1 [Example 28, 4-[3-(cinnamoylamino)propylthio]pyridine hydrochloride] | 25 | –
– | O=C(NCCCSc1ccccn1)c1cccs1 [Example 47, 2-[3-(thenoylamino)propylthio]pyridine] | 25 | inhibition in vivo at 50 mg/kg [2]: 47%
– | O=C(c1cccs1)N1CCC(Sc2ccncc2)CC1 [Example 132] | 45 | –
2.8 | COc1cc(OC)cc(C(=O)NCCCSc2ccncc2)c1 [Example 33, 4-[3-(3,5-dimethoxybenzoylamino)propylthio]pyridine] | 37 | inhibition at 1 µM ([3]; 1 μM): 33%; inhibition at 10 µM ([3]; 10 μM): 46%
– | O=C1CSC(=S)N1CCCCSc1ccncc1 [Example 163, 4-(4-rhodaninebutylthio)pyridine] | 29 | inhibition at 10 µM ([3]; 10 μM): 99%
11 | O=C1c2ccccc2C(O)N1CCCSc1ccncc1 (centres unmarked) [Example 110, 4-[3-(3-hydroxyisoindolin-1-on-2-yl)propylthio]pyridine] | 44 | inhibition at 1 µM ([3]; 1 μM): -21%; inhibition at 10 µM ([3]; 10 μM): 1%
– | O=C(NCCCSc1ccncc1)c1ccc(Cl)cc1 [Example 29, 4-[3-(4-chlorobenzoylamino)propylthio]pyridine hydrochloride] | 25 | –
4.6 | Cc1ccc(C(=O)NCCCSc2ccncc2)cc1 [Example 31, 4-[3-(4-methylbenzoylamino)propylthio]pyridine] | 32 | –
– | O=C1c2ccccc2C(=O)N1CCCCOc1ccncc1 [Example 114, 4-(4-phthalimidobutyloxy)pyridine hydrochloride] | 28 | Antipyretic activity, .increment. °C. ([4]; hydrochloride): -1.14 °C; Antipyretic activity, peak time ([4]; hydrochloride): 4 h
7.9 | O=C(NCCCSc1ccncc1)c1cc(Br)c(Br)s1 [Example 58, 4-[3-(4,5-dibromothenoylamino)propylthio]pyridine] | 48 | inhibition in vivo at 50 mg/kg [2]: 34%
8 | O=C(NCCCOc1ccncc1)c1ccccc1CO [Example 100, 4-[3-(2-hydroxymethylbenzoyl)aminopropyloxy]pyridine] | 22 | inhibition at 1 µM ([3]; 1 μM): 19%; inhibition at 10 µM ([3]; 10 μM): 32%
– | Cl.Cl.O=C(NCCCOc1ccncc1)c1ccccn1 [Example 126, 4-[3-(2-picolinoylamino)propyloxy]pyridine dihydrochloride] | 30 | Antipyretic activity, peak time [4]: 2 h; Antipyretic activity, .increment. °C. [4]: -1.21 °C
8.7 | O=C(Cc1cccs1)NCCCSc1ccncc1 [Example 55, 4-[3-(2-thienylacetylamino)propylthio]pyridine] | 41 | inhibition in vivo at 50 mg/kg [2]: 58%
– | Cl.O=C1c2ccccc2C(=O)N1COc1ccncc1 [Example 116, 4-phthalimidomethyloxypyridine hydrochloride] | – | Antipyretic activity, peak time [4]: 3 h; Antipyretic activity, .increment. °C. [4]: -0.63 °C; Inhibitory percentage (carrageenin pedal edema) [1]: 45%; inhibition at 1 µM ([3]; 1 μM): 10%; inhibition at 10 µM ([3]; 10 μM): 31%
2.9 | O=C1c2ccccc2CN1CCCCOc1ccncc1 [Example 156, 4-[4-(isoindolin-1-on-2-yl)butyloxy]pyridine] | 32 | –
– | 4-(4-isobutyrylpiperidylthio)pyridine [Example 136] | – | Inhibitory percentage (carrageenin pedal edema) [1]: 33%

IC50 (cyclooxygenase) [µM] | Compound | inhibition in vivo at 50 mg/kg [1] [%] | further results
2.5 | O=C(NCCCCSc1ccncc1)c1cccs1 [Example 129, 4-[4-(2-thenonylamino)butylthio]pyridine] | 34 | –
– | O=C1SC(=Cc2ccccc2)C(=O)N1CSc1ccncc1 [Example 159, 4-(5-benzylidene-2,4-thiazolidinedione)methylthiopyridine] | 25 | –
7 | O=C1c2ccccc2CN1CCCSc1ccncc1 [Example 111, 4-[3-(isoindolin-1-on-2-yl)propylthio]pyridine] | – | Antipyretic activity, peak time [4]: 2 h; Antipyretic activity, .increment. °C. [4]: -0.68 °C; inhibition in vivo at 50 mg/kg [2]: 64%; inhibition at 1 µM ([3]; 1 μM): 30%; inhibition at 10 µM ([3]; 10 μM): -12%
7.7 | O=C1c2ccccc2C(O)N1CCSc1ccncc1 (centres unmarked) [Example 104, 4-[2-(3-hydroxyisoindolin-1-on-2-yl)ethylthio]pyridine] | 21 | –
13 | CNC(=O)c1ccccc1C(=O)NCSc1ccncc1 [Example 112, 4-[(2-methylcarbamoylbenzoyl)aminomethylthio]pyridine] | 42 | Antipyretic activity, peak time [4]: 3 h; Antipyretic activity, .increment. °C. [4]: -1.58 °C
– | CC(C)(CSc1ccncc1)CN1C(=O)c2ccccc2C1=O [Example 145, 4-(2,2-dimethyl-3-phthalimidopropylthio)pyridine] | 22 | inhibition at 1 µM ([3]; 1 μM): 17%; inhibition at 10 µM ([3]; 10 μM): -42%
– | O=C(c1ccccc1)N(CCOc1ccncc1)Cc1ccccc1 [Example 118, 4-[2-(N-benzyl-N-benzoyl)aminoethyloxy]pyridine hydrochloride] | 31 | % Inhibition of ART growth ([3]; 1 μM): 8%; % Inhibition of ART growth ([3]; 10 μM): 38%
– | Cl.O=C1c2ccccc2C(=O)N1CCCOc1ccncc1 [Example 113, 4-(3-phthalimidopropyloxy)pyridine hydrochloride] | 35 | Antipyretic activity, peak time [4]: 4 h; Antipyretic activity, .increment. °C. [4]: -0.82 °C
– | O=C1CCC(=O)N1CCCCSc1ccncc1 [Example 143, 4-(4-succinimidobutylthio)pyridine] | 27 | –
– | O=C1c2ccccc2C(O)N1CSc1ccncc1 (centres unmarked) [Example 97, 4-(3-hydroxyisoindolin-1-on-2-ylmethylthio)pyridine] | 29 | inhibition at 1 µM ([3]; 1 μM): 30%; inhibition at 10 µM ([3]; 10 μM): 31%
10 | O=C1c2ccccc2C(=O)N1CCCOc1ccncc1 [Example 83, 4-(3-phthalimidopropyloxy)pyridine] | – | Antipyretic activity, peak time [4]: 2 h; Antipyretic activity, .increment. °C. [4]: -0.82 °C; inhibition in vivo at 50 mg/kg [2]: 59%
– | O=C(NCSc1ccncc1)c1cccnc1 [Example 138, 4-(3-picolinoylaminomethylthio)pyridine] | 25 | –
– | O=C(NCCCCSc1ccncc1)c1ccccc1 [Example 127, 4-[4-(benzoylamino)butylthio]pyridine] | 32 | –
– | O=C1c2ccccc2C(=O)N1CSc1cccnc1 [Example 63, 3-(phthalimidomethylthio)pyridine] | 34 | inhibition in vivo at 50 mg/kg [2]: 56%
– | O=C(N(CCCSc1ccncc1)Cc1cccs1)C(F)(F)F [Example 68, 4-[3-[N-(2-thienylmethyl)-N-trifluoroacetylamino]propylthio]pyridine hydrochloride] | 23 | inhibition in vivo at 50 mg/kg [2]: 50%
